In US20180000802A1, “PHARMACEUTICAL COMPOSITION FOR PREVENTION AND TREATMENT OF MENTAL DISEASE WITH ENHANCED NMDAR FUNCTION” (INSTITUTE FOR BASIC SCIENCE, priority 2015, published 2018):
Entries after “also recorded” stand apart in the source; their conditions may differ.

Experiments:
[1] = tested on: NMDAR; assay: NMDA/AMPA ratio, electrophysiology in brain slices; type: cell-based; conditions: IRSp53 deficient mouse, ratio increased vs wild-type; MPEP treatment
Procedure: (§1) To observe whether the memantine and the MPEP restore the NMDAR function observed on the hippocampus of the IRSp53 deficient mice to a normal range, the electrical signal flow of the synapses through the NMDAR was measured by the electrophysiological experiment.
In the present experiment, the Long-term potentiation (LTP) and the Long-term depression experiments were conducted. First, the NMDAR properties of the nerve cell of the IRSp53 deficient mice were electrophysiologically measured. The measurement was experimented and conducted by the method disclosed in the paper of Kim M H et al. (Kim, M. H. et al. Enhanced NMDA Receptor-Mediated Synaptic Transmission, Enhanced Long-Term Potentiation, and Impaired Learning and Memory in Mice Lacking IRSp53. J Neurosci 29, 1586-1595, doi:Doi 10.1523/Jneurosci.4306-08.2009 (2009)). The equipment used for the electrophysiological measurement was MultiClamp 700B amplifier and Axopatch 200B of Molecular Devices, and Clampex 9.2 and Clampfit 9 software of the same company were used. During the experiment, BX50WI microscope of Olympus was used.
In the present experiment, first, for all of the electrophysiological experiment, brain slices were made from the brains of the normal mice and the IRSp53 deficient mice. To make the slices, VT1200S model vibratome of Leica was used. […]

[2] = tested on: IRSp53 deficient mice; assay: 3-chamber sociability test; type: in vivo, mouse; conditions: memantine 10 mg/kg, MPEP 30 mg/kg; for mice preference (sociability behavior) in the 3-chamber sociability test: intraperitoneal injection 30 minutes before the test, vs saline control; for sedation due to side effects: intraperitoneal injection
Procedure: For the experiment animals of the present invention, wild-type mice backcrossed into a C57BL/6J background and IRSp53 deficient mice were used. The mice were at 2-4 months of age. In addition, in the present invention, all of the experiments were conducted by maintaining a temperature of 20-22° C. and a humidity of 30-40% while the lights are turned on during 7:00 am to 7:00 pm. As the memantine, which is an NMDAR inhibitor and the MGluR inhibitor, the MPEP indirectly inhibiting the NMDAR is dissolved in physiological saline and used. The memantine is used in a concentration of 10 mg (10 mg/kg) per unit weight, and the MPEP is used in a concentration of 30 mg (30 mg/kg) per unit weight, and the drug was administered to the experiment mice by intraperitoneal injection before 30 minutes of every experiment. NMDAR was tested with respect to the sociability behavior of hyperactivated mice. The 3-chamber sociability test and the direct interaction test, which are the most widely used among the behavioral experiments for identifying sociability behavior of mice. The 3-chamber sociability test was conducted by using a behavior experiment box separated into 3 sections. […] A, B, and C of FIG. 1 show the measurement based on the box bottom, the horizontal side surface and the vertical side surface, respectively, and the experiment box was manufactured exposing that the top so the experiment may be photographed by a camera (FIG. 1). In the basic 3-chamber sociability test, a mouse (stranger) was placed in one side and an object (small toy block) without scent was placed in the other side, and the normal mouse (WT) and the deficient mouse were placed in the middle chamber to observe how much attention was given to the other mouse and explored and time was spent. The detailed experiment method of the present invention is described below. First, the wild-type mouse and the IRSp53 deficient mouse were prepared. In addition, before 10 minutes of the experiment, the mouse to be experimented was put into a soundproof booth in which the experiment was to be conducted. 10 minutes later, the holes in the inner wall were blocked and the mouse was put into the middle area. Another 10 minutes later, the holes were opened, and the mouse was allowed to move freely around the 3 chambers. […] During 10 minutes of experiment where the Stranger 1 and the object were placed, the time of the mouse staying at the two areas were measured. In addition, to measure the time of the actual mice exploring the stranger 1 or the object, the time when the nose of the mouse crosses over a virtual line 2 cm away from the plastic cup was measured. […]

[3] = tested on: NMDAR; assay: Electrophysiological measurement of NMDAR-LTD in hippocampal brain slices; type: cell-based; conditions: hippocampal brain slices of IRSp53 deficient mouse, weaker NMDAR-LTD than in normal mouse; memantine treatment
Procedure: as §1
When the NMDAR is activated by electrically stimulating the never cell, an ion transferred from the outside of the nerve cell to the inside of the nerve cell through the NMDAR according to the activation level exists, and by the ion concentration difference of the inside and outside of the cell, various proteins inside the cell are also activated, thereby showing electrical reaction of the nerve cell with respect to the stimulation. The state in which this reaction is maintained for 30 minutes or longer is called Long-term potentiation (LTP) and Long-term depression (LTD), and when the NMDAR is intensively activated, the LTP may be induced, and when the NMDAR is weakly activated a long-term weakening, LTD may be induced.
In the present experiment, the Long-term potentiation (LTP) and the Long-term depression experiments were conducted. First, the NMDAR properties of the nerve cell of the IRSp53 deficient mice were electrophysiologically measured. […]

[4] = tested on: wild-type mouse and IRSp53 deficient mouse; assay: Nerve cell firing of the hippocampus in the anesthetized mouse; type: in vivo; conditions: IRSp53 deficient mouse compared to wild-type mice after memantine injection
Procedure: (§2) The memantine was administered to the IRSp53 deficient mouse, and the synapse of the medial prefrontal cortex was structurally and functionally analyzed. In the experiment, the brain slices were not made, an anesthetic drug (1.5 g/kg) named Urethane was used on the mouse to perform the electrophysiological experiment in a condition in which the neural circuitry in the mouse is maintained, and the electrical signal firing of the nerve cell was observed, In detail, in the experiment, the mouse was anesthetized, a glass electrode for measuring the electrical signal was inserted in the medial prefrontal cortex and the hippocampus, and measured. A and I of FIG. 7 show the positions through which each electrode is inserted. From the result of comparing the nerve cell firing of the medial prefrontal cortex of the IRSp53 deficient mouse, in the IRSp53 deficient mouse, the nerve cell firing of the medial prefrontal cortex decreased. Specifically, in the IRSp53 deficient mouse, the nerve cell firing specific to the excitatory nerve cell decreased (B, C and D of FIG. 7).

[5] = tested on: IRSp53 deficient mouse; assay: Nerve cell firing of the medial prefrontal cortex in the anesthetized mouse; type: in vivo; conditions: IRSp53 deficient mice, urethane anesthesia, 10 mg/kg intraperitoneally, observed after 30 minutes
Procedure: as §2

Structure (SMILES) | NMDA/AMPA ratio [1] | mice preference (sociability behavior) in the 3-chamber sociability test [2] | sedation due to side effects [2] | NMDAR-LTD [3] | nerve cell firing change in the hippocampus [4] | nerve cell firing of the medial prefrontal cortex [5]
Cc1cccc(C#Cc2ccccc2)n1 [MPEP, 2-Methyl-6-(phenylethynyl)pyridine] | restored to the level of the wild-type mouse | improved to a level of the wild-type mice | no sedation due to side effects | – | – | –
CC12CC3CC(C)(C1)CC(N)(C3)C2 [memantine] | – | improved to a level of the wild-type mice | no sedation due to side effects | restored | the firing was greater | the drug showed good effects; also recorded: restored to the normal range
